Assay results reported in patent US11000491B2, “Amino-aryl-benzamide compounds and methods of use thereof” (HEPANOVA, INC., priority 2017, dated 2021).

Assays:
[1] = test system: SREBP-1; assay: SREBP-1 expression in cultured primary human hepatocytes; assay type: cell-based; conditions: Hepatocyte
Procedure, shortened: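 Primary human hepatocytes in culture exposed to a range of HPN-01 derivative concentrations; SREBP-1 and SREBP-2 mRNA expression then measured to assess inhibition.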

[2] = test system: DGAT2; assay: Lipogenic gene mRNA by real-time qPCR in Huh7 cells; assay type: cell-based; conditions: 1 μM, 24 h
Excerpt: (§1) FIG. 8. Inhibition of various lipogenic gene mRNA levels following treatment with HPN-01. […] Sterol regulatory element-binding protein-1 (SREBP-1); Sterol regulatory element-binding protein-2 (SREBP-2); Fatty acid synthase (FASN); Stearoyl-CoA-desaturase (SCD1); Acetyl-CoA carboxylase (ACC); Elongation of very long chain fatty acids fatty acid elongase 6 (ELOVL6); Low density liporeceptor (LDLR); Fatty acid desaturase 1 (FADS1); Diacylglycerol 0-Acyltransferase 1 (DGAT1); Diacylglycerol 0-Acyltransferase 2 (DGAT2).
(§2) Huh7 cells were treated with 1 μM of HPN-01 for 24 h, and the mRNA expression levels of various pivotal lipogenic enzymes were quantified by real-time qPCR. […] Folds of inhibition were as follows: SREBP-1: 2.98±0.23; SREBP-2: 4.01±0.31; FASN: 3.87±0.23; SCD1: 4.63±0.48; ACC: 4.12±0.34; ELOVL6: 2.84±0.22; LDLR: 3.02±0.11; FADS1: 3.06±0.17; DGAT1: 1.72±0.27; DGAT2: 3.77±0.45.

[3] = test system: FADS1; assay: as above; assay type: cell-based; conditions: 1 μM, 24 h
Excerpt: as §1, §2

[4] = test system: DGAT1; assay: as above; assay type: cell-based; conditions: 1 μM, 24 h
Excerpt: as §1, §2

[5] = test system: LDLR; assay: as above; assay type: cell-based; conditions: 1 μM, 24 h
Excerpt: as §1, §2

[6] = test system: FASN; assay: as above; assay type: cell-based; conditions: 1 μM, 24 h
Excerpt: as §1, §2

[7] = test system: SCD1; assay: as above; assay type: cell-based; conditions: 1 μM, 24 h
Excerpt: as §1, §2

[8] = test system: ACC; assay: as above; assay type: cell-based; conditions: 1 μM, 24 h
Excerpt: as §1, §2

[9] = test system: ELOVL6; assay: as above; assay type: cell-based; conditions: 1 μM, 24 h
Excerpt: as §1, §2

[10] = test system: SREBP-1; assay: as above; assay type: cell-based; conditions: 1 μM, 24 h
Excerpt: as §1, §2

[11] = test system: SREBP-2; assay: as above; assay type: cell-based; conditions: 1 μM, 24 h
Excerpt: as §1, §2

[12] = test system: nSTZ+HFD NASH mice; assay: Streptozotocin (STZ) and high fat diet-induced (nSTZ+HFD) NASH mice; assay type: in vivo, C57/BL6J mice; conditions: 5 or 15 mpk orally BID, 3 weeks
Method: FIG. 27. Design of study to test in vivo HPN-01 efficacy on streptozotocin (STZ) and high fat diet-induced (nSTZ+HFD) NASH mice.
The effect of HPN-01 on various physical and biochemical parameters in mice induced to develop NASH was tested. Briefly, newborn C57/BL6J mice were divided into 5 groups, with 8 animals per group. […] The remaining four groups were injected on days 2, 3 and 4, with Vehicle (Vehicle consists of 40% PEG400:10% Cremophor EL:50% water) containing 90 μg of streptozotocin (STZ), and fed a high fat diet (HFD) from week 4 through week 9 to establish NASH hallmarks in the liver. One of the groups (Vehicle group) that received STZ was not given any further drug treatment. The remaining three groups received either orally administered Telmisartan or orally administered HPN-01 starting at week 6 and continuing for 3 weeks. Telmisartan was orally administered once per day (QD) at a dosage of 10 mpk (mg/kg weight); this group served as a positive control. HPN-01 was administrated orally twice a day (BID) with either a lower (5 mpk) or a higher (15 mpk) dose. For each group, body weight and food intake were recorded daily.
At the end of the study, animals were fasted overnight, and fasted blood glucose levels measured and compared with a fasted glucose level obtained on Day 1 of the study.
Mice were then euthanized, and whole blood drawn by cardiac puncture. Sera were prepared and stored at −80° C. for alanine aminotransferase (ALT), aspartate aminotransferase (AST), triglyceride (TG) and total cholesterol (TC) detection. Livers were isolated and liver weights were recorded. Liver tissues were stored at −80° C. for TG, TC detection, measurement of various inflammatory and fibrotic markers, and pathological studies.
Liver tissues from various groups from the study shown in FIG. 27 were observed under a microscope following Hematoxylin and Eosin (H&E) stain and Oil-red-O staining, and an NAFLD activity score determined. Additional NAFLD/NASH pathology scores were also determined, including a hepatic steatosis score (FIG. 35B), a ballooning score (FIG. 35C) and an inflammation score (FIG. 35D).

## NC(=O)c1cc(-c2ccc(Cl)cc2)cc(-c2ccc(S(N)(=O)=O)cc2)c1N [HPN-01, 2-amino-3-(p-sulfonamidophenyl)-5-(p-chlorophenyl) benzamide]
[1]
  IC50: 1710 nM
[2]
  Folds of inhibition DGAT2 mRNA: 3.77±0.45 fold
[3]
  Folds of inhibition FADS1 mRNA: 3.06±0.17 fold
[4]
  Folds of inhibition DGAT1 mRNA: 1.72±0.27 fold
[5]
  Folds of inhibition LDLR mRNA: 3.02±0.11 fold
[6]
  Folds of inhibition FASN mRNA: 3.87±0.23 fold
[7]
  Folds of inhibition SCD1 mRNA: 4.63±0.48 fold
[8]
  Folds of inhibition ACC mRNA: 4.12±0.34 fold
[9]
  Folds of inhibition ELOVL6 mRNA: 2.84±0.22 fold
[10]
  Folds of inhibition SREBP-1 mRNA: 2.98±0.23 fold
[11]
  Folds of inhibition SREBP-2 mRNA: 4.01±0.31 fold
[12]
  body weight: no effect
  daily food intake: no effect
[12]; Day-22 vs Day-1
  fasted blood glucose levels: no effect
[12]; dose-dependent
  elevation of hepatic TC: significantly reversed
  elevation of hepatic TG: significantly reversed
  elevation of serum ALT: significantly reversed
  elevation of serum AST: significantly reversed
  increase of serum total cholesterol (TC): significantly abated
  increase of serum triglyceride (TG): significantly abated
  liver COL1A1 level: reduced
  liver MCP-1 mRNA: significantly suppressed
  liver TGF-β1 level: reduced
  liver TIMP-1 level: reduced
  liver TNF-α mRNA: significantly suppressed
